Laboratory results from patent US12679827B2, “Pyrimidine compounds and their pharmaceutical uses” (National Health Research Institutes, priority 2020, dated 2026).
pIC50: −log10 of the molar value.

Columns and labels:
NCI-H446 = experiment: Small-cell-lung cancer cell proliferation inhibition assay (PrestoBlue), NCI-H446; assay type: cell-based; conditions: Homo sapiens, cMYC amplified SCLC cells, 72 hours
Procedure: (§1) Small cell lung cancer cells NCI-H82 (ATCC HTB-175, cMYC amplified), NCI-H446 (ATCC® HTB-171, cMYC amplified), and NCI-H69 (ATCC® HTB-119, MYCN amplified) were seeded at the density of 5000-10000 cells per well in 96-well plates. After 24 hours, the cancer cells were treated with each compound at various concentrations (0-10 μM) and then incubated for another 72 hours. IC50 values were computed based on duplicated 8-point titration.

NCI-H82 = experiment: Small-cell-lung cancer cell proliferation inhibition assay (PrestoBlue), NCI-H82; assay type: cell-based; conditions: Homo sapiens, cMYC amplified SCLC cells, 72 hours
Procedure: as §1

[1] = target: T1, human Aurora A (amino acids 123-401) (Homo sapiens, UniProt O14965); experiment: Kinase-Glo Luminescent Kinase assay, in vitro inhibition of Aurora A kinase activity; assay type: biochemical; conditions: recombinant GST-tagged Aurora A, 5.0 μM ATP, 37° C., 120 minutes
T1 construct: human Aurora A (amino acids 123-401) was expressed in Sf9 insect cells; GST; made in house; host or cells: Sf9 insect cells
T1 sequence (O14965 123-401): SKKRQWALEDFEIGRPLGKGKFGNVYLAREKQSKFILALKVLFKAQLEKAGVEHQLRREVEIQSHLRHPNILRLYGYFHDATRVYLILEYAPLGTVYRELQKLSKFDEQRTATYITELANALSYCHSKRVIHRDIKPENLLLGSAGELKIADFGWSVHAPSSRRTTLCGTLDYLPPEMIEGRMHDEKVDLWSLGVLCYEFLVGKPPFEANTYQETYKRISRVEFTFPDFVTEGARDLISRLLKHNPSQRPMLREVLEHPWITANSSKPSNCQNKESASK
Procedure: Recombinant glutathione S-transferase (GST)-tagged N-terminal truncated human Aurora A (amino acids 123-401) was expressed in Sf9 insect cells and then purified by glutathione affinity chromatography to afford recombinant Aurora A. Recombinant Aurora A (150 ng) was reacted with each test compound (100 nM) in 50 μL of 50 mM Tris-HCl pH 7.4, 10 mM NaCl, 10 mM MgCl2, 0.01% bovine serum albumin, 5.0 μM ATP, 1 mM dithiothreitol, 15 μM tetra(-LRRASLG) peptide at 37° C. for 120 minutes. Then, to the reaction was added 50 μL of Kinase-Glo Plus Reagent. The resulting mixture was incubated at 25° C. for 20 minutes. A 70 μL aliquot of the mixture was transferred to a black microliter plate. Luminescence was measured using a Wallac Vector 1420 multilabel counter (PerkinElmer, USA).

Row | SMILES | pIC50 (NCI-H446) | pIC50 (NCI-H82) | pIC50 [1]
1 | CCN1CCN(c2cc(Nc3ncc(C#N)s3)nc(N[C@H]3CCN(C(=O)c4ccc(Cl)cc4F)C3)n2)CC1 [Compound 1] | > 6.00 | > 6.00 | > 7.00
2 | CCOC(=O)c1cnc(Nc2cc(N3CCN(C)CC3)nc(N[C@H]3CCN(C(=O)c4ccc(Cl)cc4F)C3)n2)s1 [Compound 2] | – | > 6.00 | > 7.00
3 | Cc1cc(Nc2cc(N3CC[C@@H](N(C)C)C3)nc(N[C@H]3CCN(C(=O)c4cccc(Cl)c4F)C3)n2)n[nH]1 [Compound 20] | – | – | > 7.00
4 | Cc1cc(Nc2cc(N3CCNCC3)nc(N[C@H]3CCN(C(=O)c4cccc(Cl)c4F)C3)n2)n[nH]1 [Compound 26] | > 6.00 | > 6.00 | > 7.00
5 | COC1CCN(c2cc(Nc3cc(C)[nH]n3)nc(N[C@H]3CCN(C(=O)c4cccc(Cl)c4F)C3)n2)CC1 [Compound 28] | – | – | > 7.00
6 | CCN1CCN(c2cc(Nc3cc(C)[nH]n3)nc(N[C@H]3CCN(C(=O)c4ccc(Cl)cc4)C3)n2)CC1 [Compound 29] | – | – | > 7.00
7 | Cc1cc(Nc2cc(N3CCN(C)CC3)nc(N[C@H]3CCN(Cc4cccc(Cl)c4F)C3)n2)n[nH]1 [Compound 30] | – | – | > 7.00
8 | CCN1CCN(c2cc(Nc3cc(C)[nH]n3)nc(N[C@H]3CCN(Cc4cccc(Cl)c4F)C3)n2)CC1 [Compound 31] | > 6.00 | > 6.00 | > 7.00
9 | CCN1CCN(c2cc(Nc3cc(C)[nH]n3)nc(N[C@H]3CCN(C(=O)c4ccc(Cl)c(C)c4)C3)n2)CC1 [Compound 33] | – | – | > 7.00
10 | Cc1cc(Nc2cc(N3CCN(C)CC3)nc(N[C@H]3CCN(C(=O)c4cccc(Cl)c4F)C3)n2)n[nH]1 [Compound 35] | > 6.00 | > 6.00 | > 7.00
11 | CCN1CCN(c2cc(Nc3cc(C)[nH]n3)nc(N[C@H]3CCN(C(=O)c4cccc(Cl)c4F)C3)n2)CC1 [Compound 38] | > 6.00 | > 6.00 | > 7.00
12 | CCN1CCN(c2cc(Nc3cc(C)[nH]n3)nc(N[C@H]3CCN(C(=O)c4ccc(Cl)c(F)c4)C3)n2)CC1 [Compound 39] | > 6.00 | > 6.00 | > 7.00
13 | CCN1CCN(c2cc(Nc3cc(C)[nH]n3)nc(N[C@H]3CCN(C(=O)c4ccc(Cl)c(F)c4F)C3)n2)CC1 [Compound 40] | > 6.00 | > 6.00 | > 7.00
14 | CCN1CCN(c2cc(Nc3cc(C)[nH]n3)nc(N[C@H]3CCN(C(=O)c4cc(F)c(Cl)cc4F)C3)n2)CC1 [Compound 43] | > 6.00 | > 6.00 | > 7.00
15 | CCN1CCN(c2cc(Nc3cc(C)[nH]n3)nc(N[C@H]3CCN(C(=O)c4c(F)cc(Cl)cc4F)C3)n2)CC1 [Compound 47] | > 6.00 | > 6.00 | > 7.00
16 | CCN1CCN(c2cc(Nc3cc(C)[nH]n3)nc(N[C@H]3CCN(C(=O)c4cccc(C(F)(F)F)c4F)C3)n2)CC1 [Compound 48] | > 6.00 | > 6.00 | > 7.00
17 | CCN1CCN(c2cc(Nc3cc(C)[nH]n3)nc(N[C@H]3CCN(C(=O)c4ccc(Cl)c(C(F)(F)F)c4)C3)n2)CC1 [Compound 49] | > 6.00 | > 6.00 | > 7.00

Row | SMILES | pIC50 (NCI-H446) | pIC50 (NCI-H82) | pIC50 [1]
18 | CCN1CCN(c2cc(Nc3cc(C)[nH]n3)nc(N[C@H]3CCN(C(=O)c4nc(Cl)ccc4F)C3)n2)CC1 [Compound 50] | > 6.00 | > 6.00 | > 7.00
19 | CCN1CCN(c2cc(Nc3cc(C)[nH]n3)nc(NC3CCN(C(=O)c4cccc(Cl)c4F)C3)n2)CC1 (centres unmarked) [Compound 58] | – | – | > 7.00
20 | CCN1CCN(c2cc(Nc3cc(C)nn3C(C)=O)nc(N[C@H]3CCN(C(=O)c4ccc(Cl)cc4F)C3)n2)CC1 [Compound 70] | > 6.00 | > 6.00 | –
21 | CCN1CCN(c2cc(Nc3cc(C)[nH]n3)nc(N(CC)C3CCN(C(=O)c4cccc(Cl)c4F)CC3)n2)CC1 [Compound 109] | – | – | > 7.00
22 | Cc1cc(Nc2ccnc(NC3CCN(Cc4cccc(Cl)c4F)CC3)n2)n[nH]1 [Compound 110] | – | – | > 7.00
23 | Cc1cc(Nc2cc(C)[nH]n2)nc(N(C)C2CCN(Cc3cccc(Cl)c3F)CC2)n1 [Compound 111] | – | – | > 7.00
24 | Cc1cc(Nc2ccnc(NC3CCN(C(=O)c4cccc(F)c4F)CC3)n2)n[nH]1 [Compound 113] | – | – | > 7.00
25 | Cc1cc(Nc2cc(C)[nH]n2)nc(NC2CCN(C(=O)c3cccc(F)c3F)CC2)n1 [Compound 114] | – | – | > 7.00
26 | Cc1cc(Nc2nccs2)nc(N(C)C2CCN(Cc3cccc(Cl)c3F)CC2)n1 [Compound 115] | – | – | > 7.00
27 | Cc1cc(Nc2nccs2)nc(NC2CCN(Cc3cccc(Cl)c3F)CC2)n1 [Compound 116] | – | – | > 7.00
28 | Cc1cc(Nc2ccnc(NC3CCN(C(=O)c4cccc(Cl)c4Cl)CC3)n2)n[nH]1 [Compound 118] | – | – | > 7.00
29 | Cc1cc(Nc2cc(C)[nH]n2)nc(NC2CCN(Cc3cccc(Cl)c3F)CC2)n1 [Compound 119] | – | – | > 7.00
30 | Cc1cc(Nc2cc(C)[nH]n2)nc(NC2CCN(C(=O)c3cccc(Cl)c3F)CC2)n1 [Compound 120] | – | – | > 7.00
31 | Cc1cc(Nc2cc(C)[nH]n2)nc(NC2CCN(C(=O)c3cccc(Cl)c3Cl)CC2)n1 [Compound 121] | – | – | > 7.00
32 | CCN1CCN(c2cc(Nc3cc(C)nn3C(=O)C(C)C)nc(NC3CCN(C(=O)c4cccc(Cl)c4F)CC3)n2)CC1 [Compound 124] | > 6.00 | > 6.00 | –
33 | CCCC(=O)n1nc(C)cc1Nc1cc(N2CCN(CC)CC2)nc(NC2CCN(C(=O)c3cccc(Cl)c3F)CC2)n1 [Compound 125] | > 6.00 | > 6.00 | –

Continued, values first:

Row | pIC50 (NCI-H446) | pIC50 (NCI-H82) | pIC50 [1] | SMILES
34 | > 6.00 | > 6.00 | > 7.00 | Cc1cc(Nc2cc(N3CC(N(C)C)C3)nc(N[C@H]3CCN(C(=O)c4ccc(Cl)cc4F)C3)n2)n[nH]1 [Compound 8]
35 | > 6.00 | > 6.00 | > 7.00 | CC(=O)N1CCN(c2cc(Nc3cc(C)[nH]n3)nc(N[C@H]3CCN(C(=O)c4ccc(Cl)cc4F)C3)n2)CC1 [Compound 12]
36 | > 6.00 | > 6.00 | > 7.00 | COCCN(C)c1cc(Nc2cc(C)[nH]n2)nc(N[C@H]2CCN(C(=O)c3ccc(Cl)cc3F)C2)n1 [Compound 17]
37 | > 6.00 | > 6.00 | – | Cc1cc(Nc2cc(N3CC[C@@H](N(C)C)C3)nc(N[C@H]3CCN(C(=O)c4ccc(Cl)cc4F)C3)n2)n[nH]1 [Compound 18]
38 | > 6.00 | > 6.00 | > 7.00 | COC1CN(c2cc(Nc3cc(C)[nH]n3)nc(N[C@H]3CCN(C(=O)c4ccc(Cl)cc4F)C3)n2)C1 [Compound 19]
39 | > 6.00 | > 6.00 | > 7.00 | Cc1cc(Nc2cc(N3CC[C@H](N(C)C)C3)nc(N[C@H]3CCN(C(=O)c4cccc(Cl)c4F)C3)n2)n[nH]1 [Compound 22]
40 | – | – | > 7.00 | COC[C@@H]1CCCN1c1cc(Nc2cc(C)[nH]n2)nc(N[C@H]2CCN(C(=O)c3cccc(Cl)c3F)C2)n1 [Compound 23]
41 | – | – | > 7.00 | COC[C@H]1CCCN1c1cc(Nc2cc(C)[nH]n2)nc(N[C@H]2CCN(C(=O)c3cccc(Cl)c3F)C2)n1 [Compound 24]
42 | > 6.00 | > 6.00 | > 7.00 | Cc1cc(Nc2cc(N3CC(N(C)C)C3)nc(N[C@H]3CCN(C(=O)c4cccc(Cl)c4F)C3)n2)n[nH]1 [Compound 25]
43 | > 6.00 | > 6.00 | > 7.00 | Cc1cc(Nc2cc(N(C)CCN(C)C)nc(N[C@H]3CCN(C(=O)c4cccc(Cl)c4F)C3)n2)n[nH]1 [Compound 27]
44 | > 6.00 | > 6.00 | > 7.00 | CCN1CCN(c2cc(Nc3cc(C)[nH]n3)nc(N[C@H]3CCN(C(=O)c4ccc(Cl)cc4Cl)C3)n2)CC1 [Compound 32]
45 | – | – | > 7.00 | CCN1CCN(c2cc(Nc3cc(C)[nH]n3)nc(N[C@H]3CCN(C(=O)c4ccc(Cl)cc4C)C3)n2)CC1 [Compound 34]
46 | > 6.00 | > 6.00 | > 7.00 | Cc1cc(Nc2cc(N3CCN(C)CC3)nc(N[C@H]3CCN(C(=O)c4ccc(Cl)cc4F)C3)n2)n[nH]1 [Compound 36]
47 | > 6.00 | > 6.00 | > 7.00 | CCN1CCN(c2cc(Nc3cc(C)[nH]n3)nc(N[C@H]3CCN(C(=O)c4cc(Cl)ccc4F)C3)n2)CC1 [Compound 37]
48 | > 6.00 | > 6.00 | > 7.00 | CCN1CCN(c2cc(Nc3cc(C)[nH]n3)nc(N[C@H]3CCN(C(=O)c4ccc(F)cc4F)C3)n2)CC1 [Compound 44]
49 | > 6.00 | > 6.00 | – | COCCN(C)c1cc(Nc2cc(C)[nH]n2)nc(NC2CCN(C(=O)c3cccc(Cl)c3F)CC2)n1 [Compound 98]
